Laboratory results reported in US7700609B2, “Compositions useful as inhibitors of protein kinases” (Vertex Pharmaceuticals Incorporated, priority 2003, dated 2010).

These compounds were tested against T1, Itk (Homo sapiens, UniProt Q08881) (assay: Itk inhibition assay: radioactivity-based (Method A)). Details: 15 μM ATP, read-out: IC50 in the radioactive incorporation assay (Method A).
T1 sequence (Q08881 1-620): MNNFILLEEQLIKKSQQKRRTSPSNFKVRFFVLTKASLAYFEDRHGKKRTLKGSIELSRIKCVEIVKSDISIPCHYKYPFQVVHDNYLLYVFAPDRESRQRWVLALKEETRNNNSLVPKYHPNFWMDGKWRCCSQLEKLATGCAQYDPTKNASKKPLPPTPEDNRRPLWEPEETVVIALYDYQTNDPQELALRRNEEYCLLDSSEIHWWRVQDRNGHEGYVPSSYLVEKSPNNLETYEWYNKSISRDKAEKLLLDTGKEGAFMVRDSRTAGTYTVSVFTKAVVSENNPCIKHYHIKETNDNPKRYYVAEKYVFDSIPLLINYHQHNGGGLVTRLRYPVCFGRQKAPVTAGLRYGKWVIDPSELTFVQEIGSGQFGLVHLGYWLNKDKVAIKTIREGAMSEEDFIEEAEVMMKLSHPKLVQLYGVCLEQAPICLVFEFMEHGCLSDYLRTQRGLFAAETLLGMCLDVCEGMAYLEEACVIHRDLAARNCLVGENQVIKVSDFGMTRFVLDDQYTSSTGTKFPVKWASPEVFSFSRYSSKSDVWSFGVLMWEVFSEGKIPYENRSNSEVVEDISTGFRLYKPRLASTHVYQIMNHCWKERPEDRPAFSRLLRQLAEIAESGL
Format: biochemical
Protocol: The compounds of the present invention were evaluated as inhibitors of human Itk kinase using either a radioactivity-based, spectrophotometric or alphascreen assay.
Assays were carried out in a mixture of 100 mM HEPES (pH 7.5), 10 mM MgCl2, 25 mM NaCl, 0.01% BSA and 1 mM DTT. Final substrate concentrations were 15 μM [γ-^33P]ATP (400 μCi ^33P ATP/μmol ATP, Amersham Pharmacia Biotech/Sigma Chemicals) and 2 μM peptide (SAM68 protein Δ332-443). Assays were carried out at 25° C. in the presence of 30 nM Itk. An assay stock buffer solution was prepared containing all of the reagents listed above, with the exception of ATP and the test compound of interest. 50 μL of the stock solution was placed in a 96 well plate followed by addition of 1.5 μL of DMSO stock containing serial dilutions of the test compound (typically starting from a final concentration of 15 μM with 2-fold serial dilutions) in duplicate (final DMSO concentration 1.5%). The plate was pre-incubated for 10 minutes at 25° C. and the reaction initiated by addition of 50 μL [γ-^33P]ATP (final concentration 15 μM).
The reaction was stopped after 10 minutes by the addition of 50 μL of a TCA/ATP mixture (20% TCA, 0.4 mM ATP). A Unifilter GF/C 96 well plate (Perkin Elmer Life Sciences, Cat no. 6005174) was pretreated with 50 μL Milli Q water prior to the addition of the entire reaction mixture (150 μL). The plate was washed with 200 μL Milli Q water followed by 200 μL of a TCA/ATP mixture (5% TCA, 1 mM ATP). This wash cycle was repeated a further 2 times. After drying, 30 μL Optiphase ‘SuperMix’ liquid scintillation cocktail (Perkin Elmer) was added to the well prior to scintillation counting (1450 Microbeta Liquid Scintillation Counter, Wallac).
IC50 data were calculated from non-linear regression analysis of the initial rate data using the Prism software package (GraphPad Prism version 3.0cx for Macintosh, GraphPad Software, San Diego Calif., USA).

IC50, < 1 µM:
NS(=O)(=O)c1cccc(Nc2ncc3c(n2)-c2cc(-c4cccs4)sc2CC3)c1 [Compound I-8]
NS(=O)(=O)c1cccc(Nc2ncc3c(n2)-c2cc(-c4ccsc4)sc2CC3)c1 [Compound I-5]
COc1cccc(-c2cc3c(s2)CCc2cnc(Nc4cccc(S(N)(=O)=O)c4)nc2-3)c1 [Compound I-2]
NS(=O)(=O)c1cccc(Nc2ncc3c(n2)-c2cc(-c4cccnc4)sc2CC3)c1 [Compound I-3]
NS(=O)(=O)c1cccc(Nc2ncc3c(n2)-c2cc(-c4ccccc4Cl)sc2CC3)c1 [Compound I-7]
COc1cccc(OC)c1-c1cc2c(s1)CCc1cnc(Nc3cccc(S(N)(=O)=O)c3)nc1-2 [Compound I-14]
COc1ccccc1-c1cc2c(s1)CCc1cnc(Nc3cccc(S(N)(=O)=O)c3)nc1-2 [Compound I-9]
NS(=O)(=O)c1cccc(Nc2ncc3c(n2)-c2ccsc2CC3)c1 [Compound I-21]
COc1ccc(-c2cc3c(s2)CCc2cnc(Nc4cccc(S(N)(=O)=O)c4)nc2-3)cc1 [Compound I-11]
COc1cccc(-c2cc3c(s2)CCc2cnc(Nc4cccc(S(N)(=O)=O)c4)nc2-3)c1OC [Compound I-17]
COc1cccc(-c2cc3c(s2)CCc2cnc(Nc4ccc(S(C)(=O)=O)cc4)nc2-3)c1 [Compound I-25]
NS(=O)(=O)c1cccc(Nc2ncc3c(n2)-c2cc(-c4cccc([N+](=O)[O-])c4)sc2CC3)c1 [Compound I-13]
COc1cccc(-c2cc3c(s2)CCc2cnc(Nc4ccc(S(N)(=O)=O)cc4)nc2-3)c1 [Compound I-18]
N#Cc1cccc(-c2cc3c(s2)CCc2cnc(Nc4cccc(S(N)(=O)=O)c4)nc2-3)c1 [Compound I-12]
NS(=O)(=O)c1cccc(Nc2ncc3c(n2)-c2cc(-c4cccc(C(=O)O)c4)sc2CC3)c1 [Compound I-4]
COc1cccc(-c2cc3c(s2)CCc2cnc(Nc4cccc(S(C)(=O)=O)c4)nc2-3)c1 [Compound I-24]
NS(=O)(=O)c1cccc(Nc2ncc3c(n2)-c2cc(-c4cccc(Cl)c4)sc2CC3)c1 [Compound I-15]
Nc1cccc(-c2cc3c(s2)CCc2cnc(Nc4cccc(S(N)(=O)=O)c4)nc2-3)c1 [Compound I-10]
COc1cccc(-c2cc3c(s2)CCc2cnc(Nc4cccc(O)c4)nc2-3)c1 [Compound I-19]
CC(=O)Nc1cccc(-c2cc3c(s2)CCc2cnc(Nc4cccc(S(N)(=O)=O)c4)nc2-3)c1 [Compound I-6]
COc1cccc(-c2cc3c(s2)CCc2cnc(Nc4ccc(O)cc4)nc2-3)c1 [Compound I-23]
NS(=O)(=O)c1cccc(Nc2ncc3c(n2)-c2cc(-c4ccccc4OC(F)(F)F)sc2CC3)c1 [Compound I-28]
NS(=O)(=O)c1cccc(Nc2ncc3c(n2)-c2cc(-c4ccccc4O)sc2CC3)c1 [Compound I-27]
NS(=O)(=O)c1cccc(Nc2ncc3c(n2)-c2cc(-c4ccccc4CO)sc2CC3)c1 [Compound I-29]
COc1ccc(OC)c(-c2cc3c(s2)CCc2cnc(Nc4cccc(S(N)(=O)=O)c4)nc2-3)c1 [Compound I-20]
NS(=O)(=O)c1cccc(Nc2ncc3c(n2)-c2cc(-c4ccccc4)sc2CC3)c1 [Compound I-1]
